Calls of active or inactive are those of the source. The calls are words filed in the database; no cut-off is given here.
Biological target: T1, E-selectin (Homo sapiens) (UniProt P16581)
T1 sequence (whole entry): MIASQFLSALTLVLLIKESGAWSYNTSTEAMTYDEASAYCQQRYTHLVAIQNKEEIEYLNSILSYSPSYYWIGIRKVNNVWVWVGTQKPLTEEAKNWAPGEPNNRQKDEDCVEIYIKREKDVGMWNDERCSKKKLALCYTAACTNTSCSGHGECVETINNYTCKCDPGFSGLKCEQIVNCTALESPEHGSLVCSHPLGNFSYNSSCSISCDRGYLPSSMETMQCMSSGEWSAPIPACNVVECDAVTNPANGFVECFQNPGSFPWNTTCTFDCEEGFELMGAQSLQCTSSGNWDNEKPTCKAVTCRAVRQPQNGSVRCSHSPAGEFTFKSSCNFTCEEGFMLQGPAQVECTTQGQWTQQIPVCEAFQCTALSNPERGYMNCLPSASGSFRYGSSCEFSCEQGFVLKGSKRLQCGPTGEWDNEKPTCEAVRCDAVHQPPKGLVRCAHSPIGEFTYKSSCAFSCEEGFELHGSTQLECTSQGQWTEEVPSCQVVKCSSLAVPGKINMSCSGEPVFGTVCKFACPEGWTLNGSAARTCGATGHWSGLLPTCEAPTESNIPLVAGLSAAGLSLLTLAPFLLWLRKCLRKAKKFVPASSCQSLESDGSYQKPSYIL
Experiment: Compound was tested at 0.05-100 mM concentration to inhibit ca++ mediated binding of HL-60 cells to Selectin E adsorbed onto a multi-well plate; Active
Format: cell-based

| Activity | SMILES |
| --- | --- |
| Active | COC1OC(C)C(O)(CC(=O)CCCOC2(C(=O)O)CC(O)C(NC(C)=O)C([C@@H](O)[C@H](O)CO)O2)C(O)C1O (stereo partly drawn) |
| Active | CC1OC(OCCOC2CC(CO)C(O)C(OCC(=O)O)C2O)C(O)C(O)C1O (stereo not drawn) |
| Active | CC(=O)N[C@H]1[C@H]([C@H](O)[C@H](O)CO)O[C@@](O[C@H]2[C@@H](O)[C@@H](CO)O[C@@H](O[C@@H]([C@H](O[C@@H]3O[C@@H](C)[C@@H](O)[C@@H](O)[C@@H]3O)[C@H](C=O)NC(C)=O)[C@H](O)CO)[C@@H]2O)(C(=O)O)C[C@@H]1O |
